Laboratory results as given in patent US10646490B2, “Thieno- and pyrrolopyrimidine analogues and prodrugs thereof as anticancer agents and methods of use thereof” (UNIVERSITY OF MARYLAND, BALTIMORE COUNTY, priority 2015, dated 2020).
Where two headings read alike, the source gives them in different places.

Experiments:
A549 = experiment: Cancer cell line activity screening; format: cell-based
MDA-MB-231 = experiment: Cancer cell line activity screening; format: cell-based, human
[1] = tested on: MIA Pa-Ca-2 pancreatic cancer cells; experiment: Cancer cell line activity screening; format: cell-based
MOLM14 = experiment: Cancer cell line activity screening; format: cell-based
[2] = tested on: various cancer cell lines; experiment: Cancer cell line activity screening, panel; format: cell-based; conditions: Table 5; read-out: IC50 values as low as
Description: (§1) In order to investigate the PK profile of these compounds, a series of halogenated pyrrolo[3,2-d]pyrimidine compounds was synthesized and first tested for activity in various cancer cell lines followed by a mouse model. […] This indicates a wide variance in activity and toxicity that necessitated the synthesis of a second series of compounds with N5 alkyl substitutions in an effort to slow the rate of metabolism, which was thought to be leading to the toxicity.

[3] = Maximum tolerated dose / toxicity in mice; format: in vivo; conditions: for MTD: mouse, in vivo
Description: as §1

[4] = Mouse pharmacokinetics, plasma half-life; format: in vivo; conditions: for t1/2: 10 mg/kg injection
Protocol: Further, mouse studies on 7 were carried out at The Cancer Center Pharmacology Core (CCPC, Colorado State University) by injection of 10 mg/kg of the compound, followed by euthanization at 15, 30, 60, 90, 120, 240, and 480 minutes. […] Mouse studies on 9 were performed in the same manner.

[5] = Stability in aqueous buffer; format: physicochemical
[6] = Stability in biological media; format: in vitro ADME

Row | Compound | IC50 (A549; Homo sapiens, A549) | IC50 (MDA-MB-231; Homo sapiens, MDA-MB-231) | IC50 ([1]; Homo sapiens, MIA PaCa-2) | IC50 (MOLM14; Homo sapiens, MOLM-14) | IC50 [2] | MTD ([3]; mice) | time to little to no detection in mouse plasma [4] | t1/2 [4] | maximum tolerated dose (MTD) ([3]; mice) | duration stable in aqueous buffer (for up to) [5] | time to undetectable in biological media [6] | IC50 (A549) | IC50 (MDA-MB-231) | IC50 [1] | IC50 (MOLM14) | toxicity higher than 7 ([3]; vs 7)
1 | Clc1nc(Cl)c2[nH]cc(I)c2n1 [Compound 20, 7-iodo-2,4-dichloro pyrrolo[3,2-d]pyrimidine] | 1000 ± 100 nM | 1200 ± 400 nM | 370 ± 50 nM | 550 ± 70 nM | ≥ 14 nM | 5 to 40 mg/kg | ≤ 70 min | 30.7 min | – | – | – | – | – | – | – | –
2 | Cc1ccc(S(=O)(=O)n2cc(I)c3nc(Cl)nc(Cl)c32)cc1 [Compound 9, 2,4-Dichloro-7-iodo-5-tosyl-pyrrolo[3,2-d]pyrimidine] | – | 790 ± 40 nM | 500 ± 20 nM | – | – | 5 to 40 mg/kg | – | 32.7 min | 40 mg/kg | up to 24 hours | ≤ 1 hour | – | – | – | – | –
3 | Clc1nc(Cl)c2[nH]ccc2n1 [Compound 19, 2,4-Dichloropyrrolo[3,2-d]pyrimidine] | – | – | – | – | – | – | – | – | – | – | – | 14500 ± 3500 nM | 9700 ± 9700 nM | 5300 ± 1000 nM | 9500 ± 3100 nM | –
4 | Clc1nc(Cl)c2[nH]cc(Br)c2n1 [Compound 6] | 50 ± 20 nM | 400 ± 300 nM | 14 ± 1 nM | 23 ± 4 nM | ≥ 14 nM | 5 to 40 mg/kg | – | – | – | – | – | – | – | – | – | 2 fold
5 | Clc1nc(Cl)c2c(n1)c(I)cn2COCc1ccccc1 [Compound 8, 5-((Benzyloxy)methyl)-2,4-dichloro-7-iodo-pyrrolo[3,2-d]pyrimidine] | – | 6100 ± 400 nM | 7300 ± 800 nM | – | – | – | – | – | – | – | – | – | – | – | – | –
